These are literature values, as cited in patent publication US20250381170A1, “Low Concentration Delivery of an Ergoline Derivative for Treatment of a Headache” (Relevale, Inc., priority 2021, published 2025).

Series [1] addresses 5-HT1Dα receptors (Homo sapiens, UniProt P28221).
The target of series [2] is 5-HT1Dβ receptors (Homo sapiens, UniProt P28222).
Series [3] deals with T1, serotonin 5-HT1A receptors (Homo sapiens, UniProt P08908).
T1 sequence (P08908 1-422): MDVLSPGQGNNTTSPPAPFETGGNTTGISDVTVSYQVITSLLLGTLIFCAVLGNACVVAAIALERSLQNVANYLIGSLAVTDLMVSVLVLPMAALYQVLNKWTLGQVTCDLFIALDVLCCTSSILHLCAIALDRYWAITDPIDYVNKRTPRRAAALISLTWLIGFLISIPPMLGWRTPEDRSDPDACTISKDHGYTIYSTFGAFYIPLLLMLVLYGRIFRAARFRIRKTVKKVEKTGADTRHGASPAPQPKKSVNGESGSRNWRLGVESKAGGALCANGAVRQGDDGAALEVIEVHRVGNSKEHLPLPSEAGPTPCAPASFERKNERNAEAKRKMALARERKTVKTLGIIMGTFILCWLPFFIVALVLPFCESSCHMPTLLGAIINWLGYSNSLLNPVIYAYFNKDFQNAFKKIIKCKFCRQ

The target in series [4] is T2, serotonin 5-HT2C receptors (Homo sapiens, UniProt P28335).
T2 sequence (P28335 33-458): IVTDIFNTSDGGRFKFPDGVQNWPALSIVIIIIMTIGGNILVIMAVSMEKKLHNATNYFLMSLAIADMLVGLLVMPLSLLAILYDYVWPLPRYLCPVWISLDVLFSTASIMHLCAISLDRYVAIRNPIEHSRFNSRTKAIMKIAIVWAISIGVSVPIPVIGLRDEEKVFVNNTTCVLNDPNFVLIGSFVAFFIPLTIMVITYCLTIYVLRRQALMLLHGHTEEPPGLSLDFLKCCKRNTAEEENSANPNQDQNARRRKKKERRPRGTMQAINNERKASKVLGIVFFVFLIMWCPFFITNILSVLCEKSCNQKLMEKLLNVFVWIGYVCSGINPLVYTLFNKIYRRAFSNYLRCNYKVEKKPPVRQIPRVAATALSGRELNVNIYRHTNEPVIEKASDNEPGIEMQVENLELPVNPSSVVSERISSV

Series [5] has as its target T3, noradrenaline α2A receptors (Homo sapiens, UniProt P08913).
T3 sequence (P08913 1-465): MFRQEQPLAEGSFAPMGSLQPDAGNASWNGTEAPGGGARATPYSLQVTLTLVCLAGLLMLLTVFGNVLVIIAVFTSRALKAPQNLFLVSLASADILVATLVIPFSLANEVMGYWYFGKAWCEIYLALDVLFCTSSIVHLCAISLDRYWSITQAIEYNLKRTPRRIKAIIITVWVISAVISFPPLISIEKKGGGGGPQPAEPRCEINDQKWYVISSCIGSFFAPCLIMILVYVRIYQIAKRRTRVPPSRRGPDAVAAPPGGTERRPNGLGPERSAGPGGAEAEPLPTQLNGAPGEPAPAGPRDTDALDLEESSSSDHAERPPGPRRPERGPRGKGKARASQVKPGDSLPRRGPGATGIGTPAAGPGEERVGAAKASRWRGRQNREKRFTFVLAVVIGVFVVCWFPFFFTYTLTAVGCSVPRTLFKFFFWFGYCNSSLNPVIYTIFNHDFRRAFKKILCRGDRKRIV

In series [6] the test system is noradrenaline α, receptors.
Series [7] has as its target dopamine D2L receptors (Homo sapiens, UniProt P14416).
In series [8] the target is dopamine D3 receptors (Homo sapiens, UniProt P35462).
Chain of dopamine D3 receptors (P35462 whole entry): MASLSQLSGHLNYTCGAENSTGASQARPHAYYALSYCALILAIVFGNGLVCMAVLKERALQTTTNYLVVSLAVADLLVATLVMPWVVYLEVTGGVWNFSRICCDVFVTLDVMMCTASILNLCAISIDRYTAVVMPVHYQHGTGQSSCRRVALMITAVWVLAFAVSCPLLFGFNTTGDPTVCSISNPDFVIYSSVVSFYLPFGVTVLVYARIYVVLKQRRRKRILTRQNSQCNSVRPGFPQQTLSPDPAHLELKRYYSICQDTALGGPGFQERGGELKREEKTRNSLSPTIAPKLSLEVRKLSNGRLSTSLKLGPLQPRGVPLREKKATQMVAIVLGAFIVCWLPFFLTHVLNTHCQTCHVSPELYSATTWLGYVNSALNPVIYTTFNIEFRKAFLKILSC
For series [9] the following is noted: oral dosage forms.
For series [10] the following is noted: within 24 hours after treatment; sumatriptan-treated patients.

Chain of dopamine D2L receptors (P14416 whole entry): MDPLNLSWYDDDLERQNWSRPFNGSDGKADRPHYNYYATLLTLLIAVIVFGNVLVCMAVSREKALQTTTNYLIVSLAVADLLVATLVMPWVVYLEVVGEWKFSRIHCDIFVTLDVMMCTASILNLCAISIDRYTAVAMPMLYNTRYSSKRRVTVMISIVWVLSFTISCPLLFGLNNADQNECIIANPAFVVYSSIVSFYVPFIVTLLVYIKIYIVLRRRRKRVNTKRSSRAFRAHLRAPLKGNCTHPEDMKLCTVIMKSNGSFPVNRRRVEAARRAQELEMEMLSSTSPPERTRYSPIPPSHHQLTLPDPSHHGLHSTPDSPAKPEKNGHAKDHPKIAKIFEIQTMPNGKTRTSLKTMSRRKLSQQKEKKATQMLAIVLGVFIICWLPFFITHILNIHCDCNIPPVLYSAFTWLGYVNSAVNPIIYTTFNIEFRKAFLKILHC
Chain of 5-HT1Dα receptors (P28221 whole entry): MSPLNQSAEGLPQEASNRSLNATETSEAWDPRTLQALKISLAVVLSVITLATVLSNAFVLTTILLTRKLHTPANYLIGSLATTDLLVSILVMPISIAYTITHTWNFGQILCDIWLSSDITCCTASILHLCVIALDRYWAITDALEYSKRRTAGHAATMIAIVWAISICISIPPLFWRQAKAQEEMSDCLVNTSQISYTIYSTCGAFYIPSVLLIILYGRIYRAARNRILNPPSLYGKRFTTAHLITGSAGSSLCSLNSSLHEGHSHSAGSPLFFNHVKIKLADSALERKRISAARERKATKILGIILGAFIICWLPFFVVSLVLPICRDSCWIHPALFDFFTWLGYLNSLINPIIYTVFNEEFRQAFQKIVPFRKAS
Chain of 5-HT1Dβ receptors (P28222 whole entry): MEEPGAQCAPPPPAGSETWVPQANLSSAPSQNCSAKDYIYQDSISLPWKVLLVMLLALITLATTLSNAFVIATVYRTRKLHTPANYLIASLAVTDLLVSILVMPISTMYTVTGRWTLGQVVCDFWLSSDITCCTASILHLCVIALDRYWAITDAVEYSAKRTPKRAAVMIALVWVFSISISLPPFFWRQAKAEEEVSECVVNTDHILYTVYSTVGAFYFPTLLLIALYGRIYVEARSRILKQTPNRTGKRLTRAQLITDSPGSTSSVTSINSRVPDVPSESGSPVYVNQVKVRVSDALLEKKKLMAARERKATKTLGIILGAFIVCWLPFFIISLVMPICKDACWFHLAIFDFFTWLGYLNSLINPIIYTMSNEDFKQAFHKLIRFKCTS

For `CN1C[C@H](C(=O)N[C@]2(C)O[C@@]3(O)[C@@H]4CCCN4C(=O)[C@H](Cc4ccccc4)N3C2=O)C[C@@H]2c3cccc4[nH]cc(c34)C[C@H]21` [DHE, Dihydroergotamine], the binding affinity result in series [1], in [2], in series [3], in series [4], in series [5] and in series [6] was “high affinity” in each case. Also, the binding affinity entry in series [7] and in series [8] was “high affinity” each time. Further, the “absorption through the gut” value in series [9] is given as “poorly absorbed”.

Consider `CNS(=O)(=O)Cc1ccc2[nH]cc(CCN(C)C)c2c1` [sumatriptan], for which, in series [10], the “patients with headache reoccurrence” value is on record as 45%.
